Measured values taken from patent publication US20040023362A1, “Degradation of polycyclic aromatic hydrocarbons by microorganisms” (priority 2000, published 2004).
≈ marks a conversion by molar mass, not a printed value.

Key:
[1] = test system: Bacterial consortium VUN 10,009; assay: Degradation of high molecular weight PAHs by axenic cultures; type: cell-based
Experimental: (§1) PAH concentrations in the DCM extracts were measured on a Varian Star 3400 gas chromatograph, equipped with a flame ionization detector, using a BPX-5 capillary column (25 m×0.22 mm). The nitrogen carrier flow rate was 0.8 ml min^−1 with a pressure of 20 psi under split conditions (95:1). The oven temperature was programmed at 200° C. for 1 min, followed by a linear increase of 10° C. min^−1 to 320° C.; this temperature was held for 15 min. Injector and detector temperatures were maintained at 300° C. The peak areas of both internal standard and PAH were used to calculate peak area ratios. Ratios obtained for each sample, as well as controls, were compared to those of PAH standards.
(§2) PAH degradation experiments using axenic bacterial and fungal cultures, and fungal-bacterial co-culture, were performed in 30 ml reaction vials containing 10 ml of medium. Before inoculation, 0.1 ml of PAH stock solution (either single PAH or mixed PAH stock as described above) was introduced into the medium. This medium was then inoculated with microorganisms to produce either axenic cultures or co-cultures. Axenic cultures were inoculated with either bacteria (1 ml) to provide an initial cell population of approximately 10^4 cells ml^−1, or with mycelial pellets (0.25 g wet weight) in 10 ml of BSM. For the co-culture experiments, BSM (10 ml) contained bacteria (10^4 cells ml^−1) and 0.25 g wet weight of mycelial pellets. Experiments to investigate of co-metabolic PAH degradation by P. janthinellum were conducted with the PAH in BSM supplemented with glucose (1% final concentration) or MYPD medium. […] Medium (10 ml) was inoculated with fungal or bacterial culture using the same inoculum size as described above. All cultures were aseptically flushed with filtered (0.22 μm) air (0.2 litres min^−1) for 5 seconds on the day of inoculation and every 7 days thereafter. Abiotic controls were sterile medium containing only PAH(s). Killed-cell controls were the PAH-containing medium inoculated with a killed microbial population. The experimental cultures were conducted in triplicate, and all controls were run in duplicate. All cultures were incubated in the dark at 30° C./175 rpm. At designated time intervals the entire culture (10 ml) was sacrificed for the PAH-extraction procedure and biomass determinations.

VUN 10,010 = assay: as above; type: cell-based, Stenotrophomonas maltophilia
Experimental: as §1, §2

[2] = test system: P. janthinellum VUO 10,201; assay: as above; type: cell-based, Penicillium janthinellum
Experimental: as §1, §2

[3] = test system: S. maltophilia VUN 10,010; assay: Degradation of single high molecular weight PAHs by high initial populations of VUN 10,010 with surfactant; type: cell-based, Stenotrophomonas maltophilia
Experimental: […] Incubations contained a single PAH in BSM at 30° C. The PAH remaining was calculated as a percentage relative to the PAH recovered from the […]. Averages for the test cultures are from triplicate experiments.
Tergitol NP-10 (5 and 10 g l^−1) was added to BSM broths each containing a single high molecular weight PAH.

[4] = test system: S. maltophilia VUN 10,010; assay: Degradation of a PAH mixture by VUN 10,010 with surfactant, low initial cell population; type: cell-based, Stenotrophomonas maltophilia; conditions: for Maximum Specific Degradation Rate: — = not appreciable
Experimental: The incubations were conducted in BSM at 30° C., using low initial cell populations. The PAH remaining was calculated as a percentage relative to the PAH recovered from the uninoculated control. Averages for the test cultures are from triplicate experiments.
A low initial cell population of around 9×10^3 cells ml^−1 was used.

physchem = assay: physchem
Experimental: PAHs (approximately 1 g l^−1) were added to a 10 ml solution of BSM plus surfactant in a 30 ml glass reaction vial, which was sealed with an aluminium cap fitted with a septum. Surfactant concentrations corresponded to levels above, below, and at the CMC, and replicates were set up to allow sampling in duplicate at different time intervals up to 72 h. Incubation was performed at 30° C. and 175 rpm. The entire vial contents was collected by syringe and expressed through a preconditioned membrane filter (0.22 μm, Sartorius AG, Germany) to remove solid-phase crystalline PAH while allowing solubilized PAH in the aqueous phase and micellar pseudophase to pass into sterile vials. The filter was preconditioned by purging the filter with a few mls of sample solution to allow sorption saturation of the internal surfaces of the syringe, filter and needle. The filtrates were extracted with dichloromethane (DCM), and the concentration of solubilized PAH was determined by GC-FID as described below.
The effectiveness of a particular surfactant in solubilizing a given PAH can be assessed by determining the molar solubilization ratio (MSR) and micelle/water partition coefficient (Km). In our study, the concentrations of added PAHs were well in excess of aqueous saturation concentrations; therefore the MSR value of each compound can be obtained from the slope of the curve generated from a plot of PAH concentration versus surfactant concentration for surfactant concentrations above CMC (Edwards et al, 1991).
Km values can be determined from the measured MSR values according to the following equation (Edwards et al, 1991): [formula]
^SPAH, CMC is the apparent solubility of the PAH (mol l^−1) at surfactant CMC. VW is the molar volume of water at 30° C. ie. 0.018015 l mol^−1(Rogers and Mayhew, 1981).

[5] = BSM + PYR (pyrene 250 mg l^−1), 28 day samples
[6] = Tergitol NP-10 5 g l^−1, Single PAH
[7] = Tergitol NP-10 10 g l^−1, Single PAH
[8] = Tergitol NP-10 5 g l^−1, Mixed PAH

SMILES	PAH removal (%) [1, 5]	PAH removal (%) ([1]; BSM, 56 day samples)	PAH removal (%) (VUN 10,010; [5])	PAH removal (%) (VUN 10,010; BSM, 56 day samples)	PAH removal (%) ([2]; BSM, 56 day samples)	PAH removal (%) ([2]; BSM^g, 28 day samples)	PAH removal (%) ([2]; MYPD, 28 day samples)	Maximum Specific Degradation Rate ([3]; Brij 35 5 g l^−1, Single PAH)	percentage change in maximum specific degradation rate due to surfactant addition ([3]; Brij 35 5 g l^−1, Single PAH)	Maximum Specific Degradation Rate ([3]; Brij 35 10 g l^−1, Single PAH)	percentage change in maximum specific degradation rate due to surfactant addition ([3]; Brij 35 10 g l^−1, Single PAH)	Maximum Specific Degradation Rate ([3]; No Surfactant, Single PAH)	Maximum Specific Degradation Rate [3, 6]	percentage change in maximum specific degradation rate due to surfactant addition [3, 6]	Maximum Specific Degradation Rate [3, 7]	percentage change in maximum specific degradation rate due to surfactant addition [3, 7]	Maximum Specific Degradation Rate ([4]; No Surfactant, Mixed PAH)	percentage change in maximum specific degradation rate due to surfactant addition [4, 8]	Maximum Specific Degradation Rate [4, 8]	other results
c1ccc2cc3c(ccc4ccccc43)cc2c1 [Benz[a]anthracene, benz[a]anthracene]	9.6 + 0.7%	7.8 ± 0.3%	19.84 + 0.3%	8.2 ± 1.6%	9.1 ± 1.4%	18.1 ± 2.3%	23.1 ± 1.2%	7.18 mg PAH degraded mg^−1 protein day^−1	+63%	7.37 mg PAH degraded mg^−1 protein day^−1	+67%	4.41 mg PAH degraded mg^−1 protein day^−1	9.66 mg PAH degraded mg^−1 protein day^−1	+119%	11.14 mg PAH degraded mg^−1 protein day^−1	+153%	1.71 mg PAH degraded mg^−1 protein day^−1	+90%	3.25 mg PAH degraded mg^−1 protein day^−1	–
c1ccc2c(c1)ccc1c3ccccc3ccc21 [Chrysene, chrysene]	12.1 + 0.4%	8.2 ± 0.5%	28.3 + 1.2%	9.1 ± 1.2%	12.2 ± 0.4%	25.6 ± 1.9%	31.7 ± 3.7%	7.35 mg PAH degraded mg^−1 protein day^−1	+64%	7.93 mg PAH degraded mg^−1 protein day^−1	+77%	4.49 mg PAH degraded mg^−1 protein day^−1	6.44 mg PAH degraded mg^−1 protein day^−1	+43%	4.16 mg PAH degraded mg^−1 protein day^−1	−7%	1.42 mg PAH degraded mg^−1 protein day^−1	+94%	2.76 mg PAH degraded mg^−1 protein day^−1	PAH degradation rate in the presence of surfactants ([3]; Tergitol NP-10 5 and 10 g l^−1, high initial cell population): did not show improved PAH degradation rate
c1ccc2c(c1)cc1ccc3cccc4ccc2c1c34 [Benzo[a]pyrene, benzo[a]pyrene]	23.3 + 0.5%	6.7 ± 0.9%	32.2 + 1.2%	12.3 ± 1.0%	16.9 ± 0.2%	56.5 ± 2.4%	72.2 ± 3.2%	5.84 mg PAH degraded mg^−1 protein day^−1	−6%	5.47 mg PAH degraded mg^−1 protein day^−1	−12%	6.21 mg PAH degraded mg^−1 protein day^−1	6.73 mg PAH degraded mg^−1 protein day^−1	+8%	7.90 mg PAH degraded mg^−1 protein day^−1	27%	1.43 mg PAH degraded mg^−1 protein day^−1	+201%	4.30 mg PAH degraded mg^−1 protein day^−1	solubility (physchem; 30° C.): ~0.0159 µM (≈ 0.00401 µg/mL); solubility (physchem; 30 °C, aqueous with cosolvent or surfactant or cyclodextrin, thermodynamic from solid): 160 to 180 µM (≈ 40.4 to 45.4 µg/mL)
c1ccc2c(c1)ccc1cc3c(ccc4ccccc43)cc12 [Dibenz[a,h]anthracene, dibenz[a,h]anthracene]	13.8 + 0.9%	5.9 ± 0.5%	26.7 + 0.7%	7.8 ± 0.6%	12.9 ± 0.3%	24.4 ± 2.7%	36.7 ± 1.7%	6.26 mg PAH degraded mg^−1 protein day^−1	+50%	7.20 mg PAH degraded mg^−1 protein day^−1	+73%	4.17 mg PAH degraded mg^−1 protein day^−1	7.32 mg PAH degraded mg^−1 protein day^−1	+76%	8.74 mg PAH degraded mg^−1 protein day^−1	110%	1.20 mg PAH degraded mg^−1 protein day^−1	+140%	2.89 mg PAH degraded mg^−1 protein day^−1	concentration in the aqueous phase (physchem; at surfactant CMC, gas chromatograph): below the detection limit
